Data taken from ChEMBL document CHEMBL1201862, “PubChem BioAssay data set” (2004).
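Five concentrations, 48 hours, 96-well plates. GI50 marks 50% less growth.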 The source made the active and inactive calls. Cut-off read from the data, not from the text of the source: active = GI50 up to about 1.1 µM and inactive = higher.

Columns and labels:
Assay in all cases: NCI-60 cell line screen, 48 h
RPMI-8226 = test system: RPMI-8226
SR = test system: SR
A549 = test system: A549
NCI/ADR-RES = test system: NCI/ADR-RES
IGROV-1 = test system: IGROV-1
OVCAR-3 = test system: OVCAR-3
SK-MEL-2 = test system: SK-MEL-2
Malme-3M = test system: Malme-3M
HOP-92 = test system: HOP-92
UACC-257 = test system: UACC-257
MDA-N = test system: MDA-N
SK-MEL-5 = test system: SK-MEL-5
HCT-116 = test system: HCT-116
NCI-H460 = test system: NCI-H460
HCT-15 = test system: HCT-15
OVCAR-4 = test system: OVCAR-4
MOLT-4 = test system: MOLT-4
OVCAR-5 = test system: OVCAR-5
CCRF-CEM = test system: CCRF-CEM

Structure (SMILES) | GI50 (RPMI-8226) | GI50 (SR) | GI50 (A549) | GI50 (NCI/ADR-RES) | GI50 (IGROV-1) | GI50 (OVCAR-3) | GI50 (SK-MEL-2) | GI50 (Malme-3M) | GI50 (HOP-92) | GI50 (UACC-257) | GI50 (MDA-N) | GI50 (SK-MEL-5) | GI50 (HCT-116) | GI50 (NCI-H460) | GI50 (HCT-15) [µM] | GI50 (OVCAR-4) | GI50 (MOLT-4) | GI50 (OVCAR-5) | GI50 (CCRF-CEM)
CC(NC1=NCCO1)c1ccccc1Cl (configuration not stated) | > 100 µM (inactive) | > 100 µM (inactive) | > 100 µM (inactive) | > 100 µM (inactive) | > 100 µM (inactive) | > 100 µM (inactive) | > 100 µM (inactive) | > 100 µM (inactive) | < 0.01 µM (active) | > 100 µM (inactive) | > 100 µM (inactive) | > 100 µM (inactive) | 60.4 µM (inactive) | > 100 µM (inactive) | > 100 | > 100 µM (inactive) | 91.8 µM (inactive) | > 100 µM (inactive) | > 100 µM (inactive)
CCCN1C(=O)/C(=C\c2ccc(OC)c(OC)c2)S/C1=N\c1ccccc1 | > 100 µM (inactive) | > 100 µM (inactive) | > 100 µM (inactive) | > 100 µM (inactive) | > 100 µM (inactive) | > 100 µM (inactive) | 52.8 µM (inactive) | > 100 µM (inactive) | 50.1 µM (inactive) | > 100 µM (inactive) | > 100 µM (inactive) | > 100 µM (inactive) | > 100 µM (inactive) | > 100 µM (inactive) | > 100 | > 100 µM (inactive) | > 100 µM (inactive) | > 100 µM (inactive) | > 100 µM (inactive)
[N-]=[N+]=Nc1c(-c2ccccc2)c(Cl)nc2ccccc12 | 29.7 µM (inactive) | 39.5 µM (inactive) | 29.9 µM (inactive) | 34.8 µM (inactive) | 39.5 µM (inactive) | 44.6 µM (inactive) | 58.3 µM (inactive) | 34.8 µM (inactive) | 22 µM (inactive) | 25.5 µM (inactive) | 27 µM (inactive) | 17.3 µM (inactive) | 47.8 µM (inactive) | 31.5 µM (inactive) | 28.4 | 21.9 µM (inactive) | 51.4 µM (inactive) | > 100 µM (inactive) | > 100 µM (inactive)
CC1CN=C(N(C(=O)Nc2ccc(Cl)cc2)c2cccc(Cl)c2)S1 (configuration not stated) | > 10 µM (inactive) | 29.3 µM (inactive) | 25.6 µM (inactive) | 19.2 µM (inactive) | 24.4 µM (inactive) | 40.6 µM (inactive) | 16.6 µM (inactive) | 59 µM (inactive) | 26.3 µM (inactive) | 28.2 µM (inactive) | 24.9 µM (inactive) | 17.5 µM (inactive) | 20.4 µM (inactive) | 27.1 µM (inactive) | 11.3 | 46.3 µM (inactive) | > 10 µM (inactive) | > 100 µM (inactive) | 17.8 µM (inactive)
Nc1nc(Cl)cc(NCC2(CO)CC(OCc3ccccc3)C2)n1 (configuration not stated) | 45.9 µM (inactive) | 25.1 µM (inactive) | 54.8 µM (inactive) | 36.1 µM (inactive) | > 100 µM (inactive) | 49.2 µM (inactive) | > 100 µM (inactive) | > 100 µM (inactive) | > 100 µM (inactive) | > 100 µM (inactive) | > 100 µM (inactive) | 7 µM (inactive) | 40.5 µM (inactive) | 78.7 µM (inactive) | 65.6 | 27.5 µM (inactive) | > 10 µM (inactive) | > 100 µM (inactive) | > 100 µM (inactive)
C=C(C(=O)O[C@H]1C/C(C)=C/CC/C(CO)=C/[C@H]2C(=O)OC(=C)[C@H]12)C(O)CO (some centres not stated) | 2 µM (inactive) | 2.5 µM (inactive) | 22.9 µM (inactive) | 19.8 µM (inactive) | 19.5 µM (inactive) | 6.76 µM (inactive) | 15.6 µM (inactive) | 5.16 µM (inactive) | 8.75 µM (inactive) | 11.5 µM (inactive) | 11.7 µM (inactive) | 15.5 µM (inactive) | 7.18 µM (inactive) | 17.2 µM (inactive) | 8.05 | 20.5 µM (inactive) | 5.37 µM (inactive) | 17.3 µM (inactive) | 1.67 µM (inactive)
O=[N+]([O-])c1ccc2c(c1)n1c(N3CCCC3)[n+]3ccccc3c1c1c3ccccn3c(N3CCCC3)[n+]21.[O-][Cl+3]([O-])([O-])[O-].[O-][Cl+3]([O-])([O-])[O-] | > 100 µM (inactive) | > 100 µM (inactive) | > 100 µM (inactive) | > 100 µM (inactive) | > 100 µM (inactive) | > 100 µM (inactive) | > 100 µM (inactive) | 68.9 µM (inactive) | > 100 µM (inactive) | > 100 µM (inactive) | > 100 µM (inactive) | > 100 µM (inactive) | > 100 µM (inactive) | > 100 µM (inactive) | > 100 | > 100 µM (inactive) | 43.2 µM (inactive) | > 100 µM (inactive) | 21.1 µM (inactive)
CCc1nc(N)nc(N)c1-c1ccc(Cl)c([N+](=O)[O-])c1 | 0.676 µM (active) | 0.0439 µM (active) | 0.0218 µM (active) | 0.334 µM (active) | 0.0778 µM (active) | 8.05 µM (inactive) | 17.9 µM (inactive) | 18.4 µM (inactive) | 5.16 µM (inactive) | 6.14 µM (inactive) | 0.0764 µM (active) | 0.417 µM (active) | 0.0224 µM (active) | < 0.028 µM (active) | 0.0685 | 22.6 µM (inactive) | 0.258 µM (active) | 6.11 µM (inactive) | 0.0557 µM (active)
